Measurements from US20100273872A1, “USE OF 4-OXOBUTANOIC ACID DERIVATIVES IN THE TREATMENT OF PATHOLOGIES ASSOCIATED WITH IMMUNOLOGICAL DISORDERS” (priority 2007, published 2010).
Marks after values point to notes of the source that are not given here.

System: humoral immunity in rats (splenocytes producing anti-sheep erythrocyte antibodies)
Test: Direct haemolytic plaque (plaque-forming cells, PFC) test after immunisation with sheep erythrocytes
Type: in vivo, male Wistar rats
Details: rat; for % inhibition: haemolytic plaques (PFC)
Experimental: The immunosuppressive activity was evaluated by studying the humoral immunity in rats through the quantification of direct haemolytic plaques (“plaque-forming cells”—PFC) after immunisation with sheep erythrocytes.
This technique consists in stimulating the immune system with an anti-genic agent, the sheep erythrocytes, and in evaluating the effect of a substance on the immune response. This immune response is evaluated by measuring the proportion of splenocytes that produce anti-sheep erythrocyte antibodies in the presence of a complement (Jerne N. K., 1974).
The effect of the compounds, in suspension in methylcellulose hydrogel (Sigma ref: M0512), on the immune system was evaluated in male Wistar rats after oral administration for 5 and 7 days (5 days before sensitisation and 2 days after). The administration volume was 10 ml/kg.
10 rats were used in each group, each group corresponding to a dose of a compound, plus a control group (blank) and a positive control group (reference substance). The reference substance used was cyclophosphamide (monohydrate) from Sigma (ref: C0768) at a dose of 20 mg/kg administrated subcutaneously at a rate of 1 ml/kg, only administrated on the fifth day. During the four previous days, the animals were treated with the compound vehicle (methylcellulose).
On the fifth day, one hour after treatment, the animals were sensitised with sheep erythrocytes administrated intravenously (caudal vein), at a rate of 0.5 ml per animal. The sheep erythrocytes were suspended at a concentration of 2×10^9 cells/ml in a sodium chloride solution (isotonic).
On the ninth day, i.e. 4 days after sensitisation, the spleen was removed after euthanasia by exsanguination (section of the abdominal aorta) of the animals, which were previously anaesthetised with pentobarbital (Sanofi, 60 mg/kg).
Half of the spleen was broken up (ground), giving, after preparation, a suspension of splenocytes in PBS buffer (Dulbecco Gibco Ref: 3018199) containing 10^7 cells per millilitre.
The haemolytic plaque (PFC) reaction was induced by addition of 50 microlitres of the splenocyte suspension obtained for each animal in 200 microlitres of a suspension of PBS comprising complement and sheep erythrocytes.
The mixture, placed between the slide (holder) and cover slip creating an evaluation chamber (40 μl) delimited by paraffin, was incubated for one hour at 37° C.
At the end of the incubation, the slides were immediately placed flat at 4° C. The evaluation was performed as soon as possible. The number of haemolytic plaques (PFC) was determined by a standardised method of slide evaluation using an optical microscope. A haemolytic plaque (PFC) is a plaque where only one trapped splenocyte can be observed. The number of haemolytic plaques (PFC) is calculated for 10^6 spleen cells.

Row | Compound | % inhibition (1st experiment, cyclophosphamide 20 mg/Kg subcutaneously, only on the fifth day) | % inhibition (2nd experiment, cyclophosphamide 20 mg/Kg subcutaneously, only on the fifth day) | % inhibition (1st experiment, 30 mg/Kg oral, treatment for 5 days before sensitisation) | % inhibition (1st experiment, 100 mg/Kg oral, treatment for 5 days before sensitisation) | % inhibition (1st experiment, 300 mg/Kg oral, treatment for 5 days before sensitisation) | % inhibition (2nd experiment, 0.01 mg/Kg oral, treatment for 7 days (5 days before sensitisation and 2 days after)) | % inhibition (2nd experiment, 0.1 mg/Kg oral, treatment for 7 days (5 days before sensitisation and 2 days after)) | % inhibition (2nd experiment, 1 mg/Kg oral, treatment for 7 days (5 days before sensitisation and 2 days after)) | dose giving a statistically significant decrease in the number of haemolytic plaques (PFC) (oral, decrease in the humoral immune response) | effect in relation to the treatment phase (treatment before sensitisation only vs. also after sensitisation)
1 | O=P1(N(CCCl)CCCl)NCCCO1 (stereo not shown) [Cyclophosphamide, cyclophosphamide, reference compound] | 85** % | 54** % |  |  |  |  |  |  |  | 
2 | O=C(CC(Cc1ccccc1)C(=O)O)c1ccc(F)cc1 (single isomer, unassigned; (-)) [Molecule A, (−) 4-(4-Fluorophenyl)-4-oxo-2-phenylmethylbutanoic acid] |  |  | 3% | 19** % | 29** % | 0% | 43 * % | 42** % | ≥ 0.1 mg/kg | stronger effect after the sensitisation phase
